# Laboratory results as given in patent publication US6613797B2, “Xanthone analogs for treating infectious diseases and complexation of heme and porphyrins” (Interlab, Inc., priority 1999, dated 2003).
# Where two headings read alike, the source gives them in different places.
# Columns and labels:
# [1] = tested on: Plasmodium falciparum D6 strain; test: in vitro anti-malarial activity, [3H]-ethanolamine incorporation method; format: cell-based
# Description: Cultures were maintained at 37° C. in a gas mixture of 5% oxygen, 5% CO2, and 90% nitrogen.
# [^3H]-ethanolamine was obtained from American Radiolabeled Chemicals, Inc., St. Louis, Mo. Experiments were conducted in 96 well plates in a total volume of 200 μl at a final red blood cell concentration of 2% (v/v). An initial parasitemia of 0.2 to 0.5% was attained by addition of normal uninfected red cells. Radiolabeled ethanolamine was added after 48 hours of incubation and the experiment was terminated after 72 hours by collecting the cells onto glass fiber filters with an automated multiwell harvester.
# Stock solutions of the various Formula X1 compounds were dissolved in DMSO at a concentration of 1 mM and diluted in complete medium (including 10% human serum) to provide 10X stock concentrations in the range of 1 to 10,000 nM.
# [2] = in vitro heme aggregation (polymerization) assay; format: biochemical; details: for inhibitory activity in heme polymerization assay: result in words
# Description: Heme polymerization was carried out in 0.02 M phosphate buffer, pH 5.2 at 37° C. in the absence of protenis. A 10 mM stock solution of hemin chloride in 0.1 M NaOH wa prepared freshly and incuated at 37° C. for at least 1 hour to effect complete dissolution. Xanthones were dissolved in dimethylformamide at 10 mM and diluted into 10 ml of pre-warmed phosphate solution to a final concentraion of 25 μm. […] 25 μl of dimethylformaide wa added to the control smample. After 7, 30, 60, 120 and 190 minutes of incugation at 37° C., a 1 ml aliquot was withdraqwn, tranferred into an Eppendorf tube, and centrifugted at 14,000 g for 2 minutes at room temperature to pellet the precipitate. The soluble fraction was then transferred to a semi-microcuvette (polymethyacrylate, VER), and its absoprtion was measured at 360 nm against a blank of the test compound in buffer.
# The reactions were allowed to proceed for 2 hours in a 37° C. waterbath. After incubation, the polymer was pelleted as described above and the absorption (360 nm) of each soluble fraction was measured against a blank containing the drug alone in buffer. The IC50 values were determined by nonlinear regression analysis of the dose-response curves of percent inhibition of heme polymerization vs. drug concentration.
# [3] = tested on: intracellular amastigotes of Leishmania mexicana M379; test: intracellular amastigote assay in infected murine macrophages; format: cell-based
# Description: Bone-marrow-derived macrophages (BALB/c) were cultured with L-cell-conditioned medium for 5-7 days at 35° C. After this period of incubation, mature macrophages were transferred to Labtek 4-chamber slides containing DMEM (Dulbecco's Modified Eagle's Medium) and 10% fetal calf serum. 50,000 cells were seeded in each chamber and allowed to attach overnight at 37° C. in a humidified incubator flushed with 5% CO2. On the next day the macrophages were infected at an MOI (Multiplicity of Infection) of 10:1 with stationary promastigotes of L. mexicana. After twenty-four hours, the medium was removed and fresh medium was added containing various drug concentrations (0-5 μM). Following incubation for an additional forty-eight hours, one set of slides were fixed in methanol, dried, and stained with Giemsa stain. Fresh medium and drug were added to a parallel set of chamber slides and incubated for another 48 hours before staining. […] Microscopic inspection permitted determination of % of infected macrophages and the number of amastigotes per 100 macrophages. The IC50 value is that concentration of drug that reduces the amastigote number by 50% relative to drug-free controls. Results also were obtained in parallel fashion with macrophages.
# Intracellular amastigote studies. […] Because the amastigote stage is the only relevant clinical form of the parasites, we examined the activity of the nitrogenated xanthones against the heme-auxotrophic, intracellular amastigote form of L. mexicana. Stationary promastigotes of L. mexicana M379 rapidly invaded murine peritoneal macrophages obtained from BALB/c mice and incubated at 35° C. producing heavily burdened cells with 10 to 50 amastigotes per macrophage within 24 hours. An experiment was performed to investigate the ability of selected xanthones to reduce the number of intracellular amastigotes using this model. The IC50 value is that concentration of drug required to reduce the intracellular parasite burden by 50% relative to a drug-free control chamber. We tested the xanthone series against amastigote-infected murine peritoneal macrophages. Macrophages were seeded into Labtek chamber slides (25,000 per well/8 chamber slide) and allowed to incubate overnight in Dulbecco's Modified Eagle Medium (DMEM) supplemental with 10% fetal calf serum. On the next day the cells were infected with L. mexicana promastigotes at an MOI of 5:1 and then incubated for 24 hours at 35° C. After incubation, the monolayers were washed with buffer and medium containing varying concentrations of each xanthone (0 to 10 μM) was added to each chamber. After 48 hours of incubation (i.e., Day 3 of the experiment) one set of slides was removed, fixed with methanol, and stained with Giemsa. For another set of slides, we replenished the culture medium, added fresh drug to each well as appropriate, and then incubated the chambers for another 48 hours before staining with Giemsa. IC50 values were then averaged for 3 separate experiments and the results are presented in Table 4 and graphically in FIG. 7. […] The IC50 values recorded for C5 and C6 exposure for 96 hours of treatment were 6 nM and 2 nM.
# [4] = tested on: P. falciparum W2 strain; test: antimalarial activity against multidrug resistant W2 strain; format: cell-based, Plasmodium falciparum
# Description: A decision was made to retain the oxygen atom (a conjugatively electron-donating species) as a bridge for an R-group containing the protonatable nitrogen. […] For comparative purposes, the straight-chain di-substituted series from C2 to C8 (i.e., excepting C7), each with a terminal diethylamino group was prepared. Shown in Table 4 is the remarkable relationship between chain length and antimalarial activity within the series . . . and the extraordinary potency of the C5 (3,6-bis-ω-diethylaminoamyloxyxanthone) and C6 (3,6-bis-ω-diethylaminohexyloxyxanthone) congeners.
# [5] = tested on: Candida albicans; test: anti-Candida activity, MIC by visual inspection; format: cell-based; details: conversion of the MIC, read-out: IC50 corresponding to the MIC against Candida albicans
# Description: The minimum inhibitory concentration (MIC) of formula X1 compounds against a clinical isolate of Candida albicans was determined using the following method. […] The determination of this concentration is made by visual inspection; there is no visible growth in a tube containing the MIC of the formula X1 compound whereas visible growth is present in tubes containing sub-MIC concentrations of the compound.
# Candida albicans was grown to midlog-phase in Luria-Bertani broth (10 grams Bacto-tryptone, 5 grams Bacto-yeast extract and 10 grams NaCl per liter) and then inoculated into sterile test tubes containing LB broth to an initial density of 10^3/ml. The formula X1 compound to be tested is dissolved in dimethylsulfoxide (DMSO) at a concentration of 1 mM and added to each tube at serial dilutions (1 μM, 10 μM, 25 μM, 50 μM, 100 μM and 0 μM). The tubes are incubated at 35° C. for 15-18 hours and then visually inspected.
# [6] = Plasmodium falciparum, D6, Table 4, average of 2 experiments in triplicate, 72 hour assay, read-out: IC50 μM* P. falciparum D6
# [7] = Plasmodium falciparum, D6, Table 3, read-out: IC50 μM, P. falciparum clone D6
# [8] = Table 3, 25 μM heme, pH 5.2, 37° C., 2 hours, average of at least two determinations, read-out: IC50, μM in vitro heme polymerization
# [9] = text b143, read-out: IC50, inhibition of heme polymerization
# [10] = 96 hours of treatment, peritoneal macrophages, read-out: IC50, L. mexicana amastigotes
# [11] = Table 4, 48 hours of drug exposure, reduction of amastigote burden by 50%, read-out: IC50 μM** L. mexicana
# [12] = P. falciparum D6, read-out: IC50, anti-malarial activity
# [13] = Table 4, average of 2 experiments in triplicate, 72 hour assay, read-out: IC50 μM* P. falciparum D6
# [14] = Leishmania mexicana, Macrophage, 48 h, read-out: IC50 μM** L. mexicana
# [15] = Plasmodium falciparum, D6, read-out: IC50 μM, P. falciparum clone D6
compound,measurement,setting,value
"CCN(CC)CCOc1cccc2c(=O)c3cccc(OCCN(CC)CC)c3oc12 [45-DEAE-X, 4,5-bis-β-(N,N-diethylamino)ethoxy-xanthone]",IC50,[1]; [6],2.8 µM
"O=c1c2ccccc2oc2cc(O)cc(O)c12 [1,3-dihydroxyxanthone]",IC50,[1]; [7],75 µM
same,IC50,[2]; [8],> 1000 µM
"O=c1c2ccccc2oc2c(O)c(O)c(O)cc12 [2,3,4-trihydroxyxanthone]",IC50,[1]; [7],40 µM
same,IC50,[2]; [8],17 µM
same,IC50,[2]; [9],16.5 µM
"COc1cc2c(=O)c3ccc(OC)c(OC)c3oc2c(OC)c1OC [2,3,4,5,6-pentamethoxyxanthone]",IC50,[1]; [7],> 100 µM
same,IC50,[2]; [8],> 1000 µM
same,inhibitory activity in heme polymerization assay,[2],inactive
"CCN(CC)CCCC(C)Nc1ccnc2cc(Cl)ccc12 (stereo not drawn) [Chloroquine, reference compound]",IC50,"[1]; Plasmodium falciparum, D6, read-out: IC50, anti-malarial activity",~0.04 µM
"CCN(CC)CCCCCOc1ccc2c(=O)c3ccc(OCCCCCN(CC)CC)cc3oc2c1 [36-DEAAmyl-X, 3,6-bis-ε-(N,N-diethylamino)-amyloxy-xanthone]",IC50,[3]; [10],0.006 µM
same,IC50,[3]; [11],0.06 µM
same,IC50,[1]; [12],~0.1 µM
same,IC50,[1]; [13],0.1 µM
same,degree of potency against W2 compared with D6,[4],the same
O=c1c2ccccc2oc2ccccc12 [Xanthone],IC50,"[1]; Plasmodium falciparum, D6, read-out: IC50, μM vs. Plasmodium",> 10 µM
same,inhibitory activity in heme polymerization assay,[2],did not exhibit any inhibitory activity
"O=c1c2ccc(O)c(O)c2oc2c(O)c(O)c(O)cc12 [2,3,4,5,6-pentahydroxyxanthone]",IC50,"[3]; Leishmania mexicana, Macrophage, read-out: IC50, anti-leishmanial activity",~1 µg/mL
same,IC50,"[3]; Leishmania mexicana, Macrophage, intracellular amastigote method, read-out: IC50, anti-leishmanial activity",~5 µM
same,IC50,[1]; [7],0.4 µM
same,IC50,[2]; [8],1.2 µM
same,IC50,[2]; [9],1.2 µM
same,IC50,[5],~10 µg/mL
"CC(=O)Oc1cc2c(=O)c3ccc(OC(C)=O)c(OC(C)=O)c3oc2c(OC(C)=O)c1OC(C)=O [2,3,4,5,6-pentaacetoxyxanthone]",IC50,[1]; [7],0.075 µM
same,IC50,[2]; [8],> 1000 µM
same,inhibitory activity in heme polymerization assay,[2],inactive
"CCN(CC)CCCOc1ccc2c(=O)c3ccc(OCCCN(CC)CC)cc3oc2c1 [36-DEAP-X, 3,6-bis-γ-(N,N-diethylamino)propoxy-xanthone]",IC50,[3]; [14],0.5 µM
same,IC50,[1]; [6],1.5 µM
CCN(CC)CCCCCOc1cccc2c(=O)c3cccc(OCCCCCN(CC)CC)c3oc12,IC50,"[1]; Plasmodium falciparum, D6, Table 4, cells printed in nM, 72 hour assay, read-out: IC50 μM* P. falciparum D6",0.575 µM
"O=c1c2ccc(O)cc2oc2cc(O)ccc12 [3,6-dihydroxyxanthone]",IC50,[1]; [15],> 100 µM
same,IC50,[2]; [8],> 500 µM
"CCN(CC)CCCCCOc1ccc2c(=O)c3ccccc3oc2c1 [3-(N,N-diethylamino)amyloxy-xanthone]",IC50,[1]; [6],2.5 µM
"CCN(CC)c1ccc2c(=O)c3ccc(N(CC)CC)cc3oc2c1 [36-DEAX, 3,6-bis-N,N-diethylamino-xanthone]",IC50,[1]; [6],20 µM
same,IC50,"[1]; Plasmodium falciparum, P. falciparum D6, read-out: IC50, anti-malarial activity",~20 µM
"CCN(CC)CCCCCCCCOc1ccc2c(=O)c3ccc(OCCCCCCCCN(CC)CC)cc3oc2c1 [36-DEAOctyloxy-X, 3,6-bis-(N,N-diethylamino)octyloxy-xanthone]",IC50,[1]; [13],0.43 µM
"O=c1c2cc(O)c(O)c(O)c2oc2cc(O)cc(O)c12 [1,3,5,6,7-pentahydroxyxanthone]",IC50,[1]; [7],1 µM
same,IC50,[2]; [8],9 µM
O=c1c2ccccc2oc2ccc(O)cc12 [2-hydroxyxanthone],IC50,[1]; [15],50 µM
same,IC50,[2]; [8],> 1000 µM
"CCN(CC)CCOc1ccc2c(=O)c3ccc(OCCN(CC)CC)cc3oc2c1 [36-DEAE-X, 3,6-bis-β-(N,N-diethylamino)ethoxy-xanthone]",IC50,[3]; [14],~1.25 µM
same,IC50,[1]; [6],2.2 µM
"O=c1c2ccc(O)c(O)c2oc2c(O)c(O)ccc12 [3,4,5,6-tetrahydroxyxanthone]",IC50,[1]; [7],5 µM
same,IC50,[2]; [8],2.5 µM
"CCN(CC)CCCCCCOc1ccc2c(=O)c3ccc(OCCCCCCN(CC)CC)cc3oc2c1 [36-DEAHexyl-X, 3,6-bis-(N,N-diethylamino)-hexyloxy-xanthone]",IC50,[3]; [10],0.002 µM
same,IC50,[3]; [11],0.02 µM
same,IC50,[1]; [12],~0.1 µM
same,IC50,[1]; [13],0.075 µM
same,degree of potency against W2 compared with D6,[4],the same
O=c1c2ccccc2oc2cc(O)ccc12 [3-hydroxyxanthone],IC50,[1]; [15],> 100 µM
same,IC50,[2]; [8],> 1000 µM
"O=c1c2cc(O)c(O)c(O)c2oc2c(O)c(O)c(O)cc12 [2,3,4,5,6,7-hexahydroxyxanthone]",IC50,[1]; [7],0.1 µM
same,IC50,[2]; [8],1.4 µM
same,IC50,[5],~10 µg/mL
"CCN(CC)CCCCOc1ccc2c(=O)c3ccc(OCCCCN(CC)CC)cc3oc2c1 [36-DEAB-X, 3,6-bis-δ-(N,N-diethylamino)butoxy-xanthone]",IC50,[3]; [14],0.2 µM
same,IC50,[1]; [6],0.65 µM
"O=c1c2cccc(O)c2oc2c(O)cccc12 [4,5-dihydroxyxanthone]",IC50,[1]; [7],16 µM
same,IC50,[2]; [8],14 µM
